In patent US8877681B2, “Use of specific alcohol alkoxylates as an adjuvant for agrotechnical applications” (BASF SE, priority 2002, dated 2014):

What was measured:
[1] = tested on: white goosefoot (Chenepodium album; CHEAL); experiment: Greenhouse herbicidal efficacy test, tank mix of herbicide and adjuvant, post-emergence spray; assay type: in vivo; settings: 0% no damage, 100% complete damage
Procedure: (§1) The alkoxylates were applied by the tank mix method together with Basagran (480 g/l bentazone) or BAS 635 H (71.4% by weight of tritosulfuron). […] The herbicidal effect was assessed in a greenhouse experiment. The test plant used was white goosefoot (Chenepodium album; CHEAL) and the common morningglory (Pharbitis album; PHAAL).
(§2) The plants were sown directly or pricked out at a rate of 3-15 plants per pot. When the active ingredient was applied, the plants were 5-16 cm in height. The test containers used were plastic pots containing loamy sand and approximately 3% humus as substrate. The surfactants were applied by the tank mix method by spray application post-emergence in an automated spray cabinet with a water application rate of 400 liters per hectare. The experimental period was 6 days to 4 weeks. Evaluation was carried out using a scale of from 0% to 100%. 0% means no damage, 100% means complete damage.

[2] = tested on: common morningglory (Pharbitis album; PHAAL); experiment: as above; assay type: in vivo; settings: Tritosulfuron (BAS 635 H) 0.250 kg/ha as printed in table + adjuvant 0.125 kg/ha (Comparison 0.250 kg/ha), 0% no damage, 100% complete damage
Procedure: as §1, §2

| Structure (SMILES) | CHEAL herbicidal effect (damage, scale 0% to 100%) ([1]; Bentazone (Basagran) 0.250 kg/ha + adjuvant 0.125 kg/ha (Comparison 0.250 kg/ha), 400 l/ha water) [%] | CHEAL herbicidal effect (damage, scale 0% to 100%) ([1]; Tritosulfuron (BAS 635 H) 0.250 kg/ha as printed in table + adjuvant 0.125 kg/ha (Comparison 0.250 kg/ha)) [%] | PHAAL herbicidal effect (damage, scale 0% to 100%) [2] [%] |
| --- | --- | --- | --- |
| CC(C)N1C(=O)c2ccccc2NS1(=O)=O [Bentazone, bentazone] | 23 |  |  |
| COc1nc(NC(=O)NS(=O)(=O)c2ccccc2C(F)(F)F)nc(C(F)(F)F)n1 [Tritosulfuron, tritosulfuron] |  | 35 | 48 |
